Patent publication US5998433A, “Condensed compounds, their production and use” (Takeda Chemical Industries, Ltd., priority 1994, dated 1999)
Counter-ions that a name gives are not always drawn.

How the values were obtained:
[1] = test system: Cholesterogenesis in Rat Liver; assay: Inhibition of cholesterogenesis in rat liver ([14C] acetic acid incorporation); format: in vivo, male Sprague-Dawley rats; details: by stomach tube, lower values indicate higher inhibitory activity
Method: Inhibition of Cholesterogenesis in Rat Liver
An aqueous solution of the test drug was administered, by a stomach tube, to male Sprague-Dawley rats at 5 weeks of age; 1 hour later, [^14 C] acetic acid was intravenously administered at a dose of 10 μCi per animal. One hour later, the animals were bled, livers were excised and a portion of liver was treated with a chloroform:methanol mixture to extract lipids. After the lipid fraction was saponified, sterol was extracted with petroleum ether, precipitated using digitonin and the radioactivity in the precipitate fraction was determined using a scintillation counter. The control group orally received 0.5% methyl cellulose solution alone.
The results are shown in Table 3 (lower percent control values indicate higher cholesterol synthesis inhibitory activity).

[2] = test system: Candida albicans IFO 0583; assay: Antifungal activity (agar plate dilution method), organism A; format: cell-based; details: IFO0583, 35° C., 20 hours, pH 7.0
Method: (§1) Determination of Antifungal Activity (Agar Plate Dilution Method)
(§2) RPMI 1640 (Gibco BRL) was dissolved in 0.3 M MOPS buffer, pH 7.0, to obtain a 2-fold dilution; this solution was filtered to remove germ cells (0.45 μm). Separately, 1.4% agar (Wako Pure Chemical Industries) was thermally sterilized (121° C., 15 minutes). This agar was mixed with an equal amount of the above 2-fold diluted RPMI 1640 (0.15 M MOPS, pH 7.0). To 9.9 ml of this RPMI 1640 (0.15 M MOPS, pH 7.0)-0.7% agar medium, 0.1 ml of a 100-fold diluted DMSO solution of the test drug was added; this mixture was prepared as an agar plate in a petri dish 9 cm in diameter. The drug (dissolved in DMSO to 100-fold dilution) was used in a series of 2-fold dilutions of a starting concentration of 64 μg/ml in the agar medium. For drug-free control, an agar medium containing 0.1 ml of DMSO or […] of sterile water was prepared. An inoculum of frozen cells was diluted with physiological saline and spot inoculated onto the agar medium (0.005 ml; 700-15,000 cfu) using a microplanter (Sakuma Seisakusho), followed by cultivation at 35° C. for 20 hours. Antifungal activity was assessed macroscopically; the minimum concentration for complete growth inhibition was expressed as MIC (minimum growth inhibitory concentration).

[3] = test system: Candida tropicalis IFO 0587; assay: Antifungal activity (agar plate dilution method), organism B; format: cell-based; details: IFO0587, 35° C., 20 hours, pH 7.0
Method: as §1, §2

[4] = test system: Candida tropicalis IFO 10241; assay: Antifungal activity (agar plate dilution method), organism C; format: cell-based; details: IFO10241, 35° C., 20 hours, pH 7.0
Method: as §1, §2

[5] = test system: Candida glabrata IFO 0622; assay: Antifungal activity (agar plate dilution method), organism D; format: cell-based; details: Nakaseomyces glabratus, IFO0622, 35° C., 20 hours, pH 7.0
Method: as §1, §2

Candida krusei IFO 0584 = assay: Antifungal activity (agar plate dilution method), organism E; format: cell-based; details: Pichia kudriavzevii, IFO0584, 35° C., 20 hours, pH 7.0
Method: as §1, §2

Candida krusei IFO 1162 = assay: Antifungal activity (agar plate dilution method), organism F; format: cell-based; details: Pichia kudriavzevii, IFO1162, 35° C., 20 hours, pH 7.0
Method: as §1, §2

Candida utilis IFO 0619 = assay: Antifungal activity (agar plate dilution method), organism G; format: cell-based; details: Williopsis jadinii, IFO0619, 35° C., 20 hours, pH 7.0
Method: as §1, §2

[6] = test system: Aspergillus fumigatus IFO 6344; assay: Antifungal activity (agar plate dilution method), organism H; format: cell-based; details: IFO6344, 35° C., 20 hours, pH 7.0
Method: as §1, §2

[7] = test system: Aspergillus niger IFO 4414; assay: Antifungal activity (agar plate dilution method), organism I; format: cell-based; details: IFO4414, 35° C., 20 hours, pH 7.0
Method: as §1, §2

[8] = Plasma HDL-cholesterol-elevating effect in Wistar fatty rats; format: in vivo, Female Wistar fatty rats; details: for HDL-cholesterol / Total cholesterol / Glucose / Triglyceride / Non-HDL-cholesterol: plasma, 1 week, stomach tube, mean ± standard deviation; for HDL-cholesterol: control 92.4 ± 9.2; for Total cholesterol: control 154 ± 13; for Glucose: control 285 ± 45; for Triglyceride: control 694 ± 192; for Non-HDL-cholesterol: total minus HDL, control 62.0 ± 12.5
Text: Plasma HDL-cholesterol-elevating Effect in Wistar Fatty Rats
Female Wistar fatty rats (19 weeks of age, bred in Experimental Animals Unit, Takeda Chemical Industries, Ltd.) were given a 0.5% methyl-cellulosesolution of compound 31 by a stomach tube for 1 week. Blood was collected via the orbital sinus under non-fasting conditions; plasma total cholesterol and HDL-cholesterol were enzymatically determined using a commercial kit (produced by Wako Pure Chemical Industries, Ltd.). Non-HDL-cholesterol levels were obtained by subtracting HDL-cholesterol from total cholesterol levels. Triglyceride and glucose were also enzymatically determined using commercial kits (both produced by Iatron Laboratories, Inc.).

SMILES | MIC [2] [µg/mL] | MIC [3] [µg/mL] | MIC [4] [µg/mL] | MIC [5] [µg/mL] | MIC (Candida krusei IFO 0584) [µg/mL] | MIC (Candida krusei IFO 1162) [µg/mL] | MIC (Candida utilis IFO 0619) [µg/mL] | MIC [6] [µg/mL] | MIC [7] [µg/mL] | also measured
CCN(CC)Cc1cc2c(o1)CN(C(=O)c1ccc(C(=O)c3ccccc3)cc1)CC2 [Example 39, N,N-diethyl-[6-(4-benzoylbenzoyl)-4,5,6,7-tetrahydrofuro[2,3-c]pyridin-2-ylmethyl]amine hydrochloride] | – | – | – | – | – | – | – | – | – | Cholesterol synthesis in rat liver, % of control ([1]; 3.0 mg/kg): 64.6 % Control
CCCCCCCc1ccc(C(=O)N2CCc3cc(CN(C)C)oc3C2)cc1 [Example 21, N,N-dimethyl-[6-(4-heptylbenzoyl)-4,5,6,7-tetrahydrofuro[2,3-c]pyridin-2-ylmethyl]amine hydrochloride] | 2 | 2 | 2 | 4 | 1 | 2 | 1 | 1 | 1 | –
CN(C)Cc1cc2c(o1)CCN(C(=O)CCCCCc1ccc(F)cc1)C2 [Example 28, 1-(2-dimethylaminomethyl-6,7-dihydro-4H-furo[3,2-c]pyridin-5-yl)-6-(4-fluorophenyl)hexan-1-one hydrochloride] | 8 | 2 | 32 | 16 | 4 | 8 | 2 | 4 | 4 | –
CN(C)Cc1cc2c(o1)CN(C(=O)c1ccc(/C=C\c3ccccc3)cc1)CC2 [Example 33, (Z)-N,N-dimethyl-[6-(4-stilbenecarbonyl)-4,5,6,7-tetrahydrofuro[2,3-c]pyridin-2-ylmethyl]amine hydrochloride] | 32 | 16 | 64 | 16 | 8 | 16 | 4 | 0.5 | 0.25 | –
CN(C)Cc1cc2c(o1)CCN(C(=O)c1ccc(C(=O)c3ccc(Cl)cc3)cc1)C2 [Example 32, N,N-dimethyl-[5-[4-(4-chlorobenzoyl)benzoyl]-4,5,6,7-tetrahydrofuro[3,2-c]pyridin-2-ylmethyl]amine hydrochloride] | 16 | 8 | 32 | 32 | 32 | 32 | 8 | 2 | 2 | –
CN(C)Cc1cc2c(o1)CCN(C(=O)CCCCSc1ccccc1)C2 [Example 44, 1-(2-dimethylaminomethyl-6,7-dihydro-4H-furo[3,2-c]pyridin-5-yl)-5-phenylthiopentan-1-one hydrochloride] | 16 | 8 | 8 | 32 | 8 | 16 | 4 | 8 | 8 | –
CN(C)Cc1cc2c(o1)CCN(S(=O)(=O)CCCCCc1ccccc1)C2 [Example 53, N,N-dimethyl-[5-(5-phenylpentylsulfonyl)-4,5,6,7-tetrahydrofuro[3,2-c]pyridin-2-ylmethyl]amine hydrochloride] | – | – | – | – | – | – | – | – | – | Cholesterol synthesis in rat liver, % of control ([1]; 10 mg/kg): 42.3 % Control
CN(C)Cc1cc2c(o1)CCN(C(=O)OCCCCc1ccccc1)C2 [Example 48, N,N-dimethyl-[5-(4-phenylbutoxycarbonyl)-4,5,6,7-tetrahydrofuro[3,2-c]pyridin-2-ylmethyl]amine hydrochloride] | 16 | 8 | 64 | 32 | 8 | 16 | 2 | 32 | 16 | –
CN(C)Cc1cc2c(o1)CCN(C(=O)CCCCCc1ccccc1)C2 [Example 6, 1-(2-dimethylaminomethyl-6,7-dihydro-4H-furo[3,2-c]pyridin-5-yl)-6-phenylhexan-1-one hydrochloride] | 16 | 2 | 16 | 32 | 4 | 16 | 2 | 16 | 8 | –
CNCc1cc2c(o1)CN(C(=O)CCCCCc1ccccc1)CC2 [Example 38, 1-(2-methylaminomethyl-5,7-dihydro-4H-furo[2,3-c]pyridin-6-yl)-6-phenylhexan-1-one hydrochloride] | – | – | – | – | – | – | – | – | – | Cholesterol synthesis in rat liver, % of control ([1]; 30 mg/kg): 29.9 % Control
CN(C)Cc1cc2c(o1)CN(C(=O)c1ccc(C(=O)c3ccc(Cl)cc3)cc1)CC2 [Example 31, N,N-dimethyl-[6-[4-(4-chlorobenzoyl)benzoyl]-4,5,6,7-tetrahydrofuro[2,3-c]pyridin-2-ylmethyl]amine hydrochloride] | 8 | 2 | 16 | 64 | 16 | 32 | 4 | 0.5 | 0.5 | Plasma HDL-cholesterol level ([8]; in words, Wistar fatty rats): increased significantly, depending on dose; Plasma glucose level ([8]; in words, Wistar fatty rats): not affected; Plasma non-HDL-cholesterol level ([8]; in words, Wistar fatty rats): not affected; Plasma total cholesterol level ([8]; in words, Wistar fatty rats): increased significantly, depending on dose; Plasma triglyceride level ([8]; in words, Wistar fatty rats): not affected; HDL-cholesterol ([8]; 0.1 mg/kg-day, p<0.05): 113 ± 15.4 mg/dL; Total cholesterol ([8]; 0.1 mg/kg-day): 175 ± 21 mg/dL; Glucose ([8]; 0.1 mg/kg-day): 251 ± 72 mg/dL; Triglyceride ([8]; 0.1 mg/kg-day): 599 ± 195 mg/dL; Non-HDL-cholesterol ([8]; 0.1 mg/kg-day): 62.5 ± 7.9 mg/dL; HDL-cholesterol ([8]; 0.3 mg/kg-day, p<0.05): 135 mg/dL; Total cholesterol ([8]; 0.3 mg/kg-day, p<0.05): 192 ± 24 mg/dL; Glucose ([8]; 0.3 mg/kg-day): 242 ± 39 mg/dL; Triglyceride ([8]; 0.3 mg/kg-day): 538 ± 155 mg/dL; Non-HDL-cholesterol ([8]; 0.3 mg/kg-day): 57.1 ± 10.7 mg/dL
CN(C)Cc1cc2c(o1)CN(C(=O)CCCCCc1ccc(F)cc1)CC2 [Example 27, 1-(2-dimethylaminomethyl-5,7-dihydro-4H-furo[2,3-c]pyridin-6-yl)-6-(4-fluorophenyl)hexan-1-one hydrochloride] | 16 | 32 | 64 | 16 | 4 | 8 | 2 | 2 | 2 | –
CN(C)Cc1cc2c(o1)CN(C(=O)CCCCSc1ccccc1)CC2 [Example 43, 1-(2-dimethylaminomethyl-5,7-dihydro-4H-furo[2,3-c]pyridin-6-yl)-5-phenylthiopentan-1-one hydrochloride] | 8 | 2 | 8 | 16 | 16 | 16 | 2 | 8 | 4 | –
